Test results taken from publication PMC8230315, “A Pan-Inhibitor for Protein Arginine Methyltransferase Family Enzymes” (Biomolecules, 2021).
Where two headings read alike, the source gives them in different places.

Columns and labels:
[1] = target: T1, PRMT1 (Homo sapiens, UniProt Q99873); experiment: SAHH-coupled fluorescence assay, PRMT1 inhibition; type: biochemical; conditions: for IC50: PRMT1 0.1 µM, n = 2, mean ± SD; for Ki: calculated as Ki, app = IC50/(1 + [S]/Km), read-out: Ki, app
Experimental: A fluorescence-based SAHH-coupled assay was used to evaluate the IC50 values of inhibitors by monitoring the production of SAH from SAM after methylation. […] The fluorescence signal was monitored on a BMG CLARIOstar microplate reader with excitation at 400 nm and emission at 465 nm for 18 min. Data were processed using GraphPad Prism software 7.0. All experiments were performed in duplicate.
The fluorescence signal was monitored on a BMG CLARIOstar microplate reader with excitation at 400 nm and emission at 465 nm for 18 min. Data were processed using GraphPad Prism software 7.0. All experiments were performed in duplicate. […].

[2] = target: T2, SETD7 (Homo sapiens, UniProt Q8WTS6); experiment: Selectivity SAHH-coupled fluorescence assay, SETD7; type: biochemical; conditions: at 100 μM
T2 construct: made in house
T2 sequence (Q8WTS6 1-366): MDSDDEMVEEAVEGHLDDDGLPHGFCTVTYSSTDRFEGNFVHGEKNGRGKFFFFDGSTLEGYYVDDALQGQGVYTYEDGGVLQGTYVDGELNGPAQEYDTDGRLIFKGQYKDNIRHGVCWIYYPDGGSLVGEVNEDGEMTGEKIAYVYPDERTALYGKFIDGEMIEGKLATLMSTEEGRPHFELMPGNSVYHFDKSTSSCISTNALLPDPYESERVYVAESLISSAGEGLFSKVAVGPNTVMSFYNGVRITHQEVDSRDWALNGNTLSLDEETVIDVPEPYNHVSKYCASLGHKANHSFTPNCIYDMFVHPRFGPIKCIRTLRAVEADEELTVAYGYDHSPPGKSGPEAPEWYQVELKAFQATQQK
Source text: (§1) We chose the top four potent compounds (6b and 6l–n) to investigate their selectivities against several in-house methyltransferases including protein arginine methyltransferase TbPRMT7, two members of the protein lysine methyltransferase PKMT (G9a and SETD7), protein N-terminal methyltransferase 1 (NTMT1), and a small molecule methyltransferase nicotinamide N-methyltransferase (NNMT), all of which have a SAM binding site.
A fluorescence-based SAHH-coupled assay was applied to study the effect of the compound on methyltransferase activity of PRMT7, NTMT1, SETD7, G9a, NNMT, and SAHH. For PRMT7, the assay was performed in a final well volume of 100 μL: 25 mM Tris (pH = 7.5), 50 mM KCl, 0.01% Triton X-100, 5 μM SAHH, 0.2 μM PRMT7, 3 μM AdoMet, and 15 μM ThioGlo1. After incubation for 10 min with the inhibitor, reactions were initiated by the addition of 60 μM H4-21 peptide, and the reaction was monitored for 15 min. For NTMT1, the assay was performed in a final well volume of 100 μL: 25 mM Tris (pH = 7.5), 50 mM KCl, 0.01% Triton X-100, 5 μM SAHH, 0.1 μM NTMT1, 3 μM AdoMet, and 10 μM ThioGlo4. After incubation for 10 min with the inhibitor, reactions were initiated by the addition of 0.5 μM GPKRIA peptide, and the reaction was monitored for 15 min. For SETD7, the assay was performed in a final well volume of 100 μL: 25 mM potassium phosphate buffer (pH = 7.6), 0.01% Triton X-100, 5 μM SAHH, 1 μM SETD7, 2 μM AdoMet, and 10 μM ThioGlo1. After incubation for 10 min with the inhibitor, reactions were initiated by the addition of 90 μM H3-21 peptide, and the reaction was monitored for 15 min. For G9a, the assay was performed in a final well volume of 100 μL: 25 mM potassium phosphate buffer (pH = 7.6), 1 mM EDTA, 2 mM MgCl2, 0.01% Triton X-100, 5 μM SAHH, 0.1 μM His-G9a, 10 μM AdoMet, and 10 μM ThioGlo4. For NNMT, the assay was performed in a final well volume of 100 μL: 25 mM Tris (pH = 7.5), 50 mM KCl, 0.01% Triton X- 100, 5 μM SAHH, 0.1 μM NNMT, 10 μM AdoMet, and 10 μM ThioGlo1. After incubation for 10 min with the inhibitor, reactions were initiated by the addition of 10 μM nicotinamide, and the reaction was monitored for 18 min. The inhibitors were added at five concentrations: 100, 33.3, 11.1, 3.7, and 1.2 μM.

[3] = target: T3, TbPRMT7 (Trypanosoma brucei brucei, UniProt Q582G4); experiment: Selectivity SAHH-coupled fluorescence assay, TbPRMT7; type: biochemical; conditions: at 11.1 μM
T3 construct: made in house
T3 sequence (Q582G4 whole entry): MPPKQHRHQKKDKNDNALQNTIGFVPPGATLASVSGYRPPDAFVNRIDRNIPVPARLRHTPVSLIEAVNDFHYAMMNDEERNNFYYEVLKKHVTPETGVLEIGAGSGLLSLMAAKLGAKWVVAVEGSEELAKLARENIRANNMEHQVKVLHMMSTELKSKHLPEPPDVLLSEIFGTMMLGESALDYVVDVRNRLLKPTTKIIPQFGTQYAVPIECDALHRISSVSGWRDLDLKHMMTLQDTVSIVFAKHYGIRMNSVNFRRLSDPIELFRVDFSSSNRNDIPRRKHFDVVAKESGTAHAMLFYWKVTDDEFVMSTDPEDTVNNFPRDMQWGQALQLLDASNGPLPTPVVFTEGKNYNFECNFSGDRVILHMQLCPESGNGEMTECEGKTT
Source text: as §1
A fluorescence-based SAHH-coupled assay was applied to study the effect of the compound on methyltransferase activity of PRMT7, NTMT1, SETD7, G9a, NNMT, and SAHH. For PRMT7, the assay was performed in a final well volume of 100 μL: 25 mM Tris (pH = 7.5), 50 mM KCl, 0.01% Triton X-100, 5 μM SAHH, 0.2 μM PRMT7, 3 μM AdoMet, and 15 μM ThioGlo1. After incubation for 10 min with the inhibitor, reactions were initiated by the addition of 60 μM H4-21 peptide, and the reaction was monitored for 15 min. […] After incubation for 10 min with the inhibitor, reactions were initiated by the addition of 0.5 μM GPKRIA peptide, and the reaction was monitored for 15 min. […] After incubation for 10 min with the inhibitor, reactions were initiated by the addition of 90 μM H3-21 peptide, and the reaction was monitored for 15 min. […] After incubation for 10 min with the inhibitor, reactions were initiated by the addition of 10 μM nicotinamide, and the reaction was monitored for 18 min. […]

[4] = target: T1, PRMT1; conditions: cited from earlier work
[5] = system: PRMT5/MEP50; parameters: method as in doi:10.1158/1538-7445.AM2018-4859; conditions: cited from earlier work
[6] = target: T4, PRMT4 (Homo sapiens, UniProt Q86X55); conditions: cited from earlier work
T4 construct: purchased Reaction Biology
T4 sequence (Q86X55 1-608): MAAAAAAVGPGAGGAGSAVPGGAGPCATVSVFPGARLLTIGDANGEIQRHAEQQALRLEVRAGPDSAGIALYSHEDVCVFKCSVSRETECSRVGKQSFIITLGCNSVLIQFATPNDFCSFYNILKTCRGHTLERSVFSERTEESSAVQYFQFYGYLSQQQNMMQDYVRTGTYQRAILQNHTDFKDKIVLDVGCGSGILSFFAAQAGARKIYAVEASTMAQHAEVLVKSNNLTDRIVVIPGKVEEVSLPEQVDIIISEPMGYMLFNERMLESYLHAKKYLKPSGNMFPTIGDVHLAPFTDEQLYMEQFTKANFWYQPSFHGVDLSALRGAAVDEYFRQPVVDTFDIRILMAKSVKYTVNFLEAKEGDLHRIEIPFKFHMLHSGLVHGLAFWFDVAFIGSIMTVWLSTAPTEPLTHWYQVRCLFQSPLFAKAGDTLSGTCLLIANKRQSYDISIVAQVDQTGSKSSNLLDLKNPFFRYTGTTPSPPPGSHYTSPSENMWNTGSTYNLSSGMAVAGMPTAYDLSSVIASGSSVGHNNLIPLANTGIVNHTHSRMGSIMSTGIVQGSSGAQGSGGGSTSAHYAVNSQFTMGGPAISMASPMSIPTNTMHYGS

[7] = at Km of SAM (10 µM) and H4-21 peptide (5 µM)
[8] = substrate concentration at 4 Km (footnote a)

T1 sequence (Q99873 whole entry, species assumed): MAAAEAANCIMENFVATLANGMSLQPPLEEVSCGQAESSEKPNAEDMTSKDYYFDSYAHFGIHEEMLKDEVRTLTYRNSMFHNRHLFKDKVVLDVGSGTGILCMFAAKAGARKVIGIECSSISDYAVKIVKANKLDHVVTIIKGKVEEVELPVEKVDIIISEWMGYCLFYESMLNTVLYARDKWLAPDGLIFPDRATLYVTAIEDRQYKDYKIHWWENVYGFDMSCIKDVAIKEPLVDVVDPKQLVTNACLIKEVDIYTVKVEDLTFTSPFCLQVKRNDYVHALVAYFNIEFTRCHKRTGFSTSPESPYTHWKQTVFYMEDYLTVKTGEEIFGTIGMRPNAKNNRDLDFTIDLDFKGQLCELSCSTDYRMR

SMILES | IC50 [1, 7] | Ki [1] | also measured
CCNC(=N)NCCCSC[C@H]1O[C@@H](n2cnc3c(N)ncnc32)[C@H](O)[C@@H]1O [Compound 6a, 1-(3-((((2S,3S,4R,5R)-5-(6-amino-9H-purin-9-yl)-3,4-dihydroxytetrahydrofuran-2-yl)methyl)thio)propyl)-3-ethylguanidine] | 620 ± 80 nM | 310 ± 40 nM | 
N=C(NCCCSC[C@H]1O[C@@H](n2cnc3c(N)ncnc32)[C@H](O)[C@@H]1O)NC1CCCC1 [Compound 6c, 1-(3-((((2S,3S,4R,5R)-5-(6-amino-9H-purin-9-yl)-3,4-dihydroxytetrahydrofuran-2-yl)methyl)thio)propyl)-3-cyclopentylguanidine] | 220 ± 16 nM | 110 ± 8 nM | 
N=C(NCCCSC[C@H]1O[C@@H](n2cnc3c(N)ncnc32)[C@H](O)[C@@H]1O)Nc1ccccc1 [Compound 6f, 1-(3-((((2S,3S,4R,5R)-5-(6-amino-9H-purin-9-yl)-3,4-dihydroxytetrahydrofuran-2-yl)methyl)thio)propyl)-3-phenylguanidine] | 290 ± 10 nM | 150 ± 5 nM | fold reduction of PRMT1 inhibition compared to 6d ([1]; ratio of IC50 values): about 2.5 fold
N=C(NCCCSC[C@H]1O[C@@H](n2cnc3c(N)ncnc32)[C@H](O)[C@@H]1O)NCc1ccccc1 [Compound 6g, 1-(3-((((2S,3S,4R,5R)-5-(6-amino-9H-purin-9-yl)-3,4-dihydroxytetrahydrofuran-2-yl)methyl)thio)propyl)-3-benzylguanidine] | 720 ± 150 nM | 360 ± 75 nM | 
N=C(NCCCSC[C@H]1O[C@@H](n2cnc3c(N)ncnc32)[C@H](O)[C@@H]1O)NCCc1ccccc1 [Compound 6h, 1-(3-((((2S,3S,4R,5R)-5-(6-amino-9H-purin-9-yl)-3,4-dihydroxytetrahydrofuran-2-yl)methyl)thio)propyl)-3-phenethylguanidine] | 210 ± 60 nM | 110 ± 30 nM | 
N=C(NCCCSC[C@H]1O[C@@H](n2cnc3c(N)ncnc32)[C@H](O)[C@@H]1O)NCCCc1ccccc1 [Compound 6i, 1-(3-((((2S,3S,4R,5R)-5-(6-amino-9H-purin-9-yl)-3,4-dihydroxytetrahydrofuran-2-yl)methyl)thio)propyl)-3-(3-phenylpropyl)guanidine] | 330 ± 110 nM | 170 ± 55 nM | 
N=C(NCCCSC[C@H]1O[C@@H](n2cnc3c(N)ncnc32)[C@H](O)[C@@H]1O)Nc1ccccc1[N+](=O)[O-] [Compound 6j, 1-(3-((((2S,3S,4R,5R)-5-(6-amino-9H-purin-9-yl)-3,4-dihydroxytetrahydrofuran-2-yl)methyl)thio)propyl)-3-(2-nitrophenyl)guanidine] | 210 ± 10 nM | 110 ± 5 nM | 
N=C(N)NCCCCN(CCC(N)C(=O)O)C[C@H]1O[C@@H](n2cnc3c(N)ncnc32)[C@H](O)[C@@H]1O (some centres unmarked) [JD-16] |  |  | IC50 [4]: 3000 nM
CCCNC(CCC(N)C(=O)O)C[C@H]1O[C@@H](n2cnc3c(N)ncnc32)[C@H](O)[C@@H]1O (some centres unmarked) [Pr-SNF] |  |  | IC50 [6]: 9500 nM

The remaining compounds from weak to strong by Ki [1], led by results:

IC50 [1, 7] | Ki [1] | SMILES | also measured
120 ± 26 nM | 60 ± 13 nM | N=C(NCCCSC[C@H]1O[C@@H](n2cnc3c(N)ncnc32)[C@H](O)[C@@H]1O)NCC1CCCCC1 [Compound 6e, 1-(3-((((2S,3S,4R,5R)-5-(6-amino-9H-purin-9-yl)-3,4-dihydroxytetrahydrofuran-2-yl)methyl)thio)propyl)-3-(cyclohexylmethyl)guanidine] | 
 | 58 ± 7 nM | N=C(NCCCSC[C@H]1O[C@@H](n2cnc3c(N)ncnc32)[C@H](O)[C@@H]1O)Nc1ccc(Br)cc1 [Compound 6m, 1-(3-((((2S,3S,4R,5R)-5-(6-amino-9H-purin-9-yl)-3,4-dihydroxytetrahydrofuran-2-yl)methyl)thio)propyl)-3-(4-bromophenyl)guanidine] | inhibition at 100 µM [2]: > 50%; IC50 [1, 8]: 290 ± 40 nM
110 ± 48 nM | 55 ± 24 nM | N=C(NCCCSC[C@H]1O[C@@H](n2cnc3c(N)ncnc32)[C@H](O)[C@@H]1O)NC1CCCCC1 [Compound 6d, 1-(3-((((2S,3S,4R,5R)-5-(6-amino-9H-purin-9-yl)-3,4-dihydroxytetrahydrofuran-2-yl)methyl)thio)propyl)-3-cyclohexylguanidine] | 
 | 52 ± 14 nM | N=C(NCCCSC[C@H]1O[C@@H](n2cnc3c(N)ncnc32)[C@H](O)[C@@H]1O)NCc1ccc(Br)cc1 [Compound 6n, 1-(3-((((2S,3S,4R,5R)-5-(6-amino-9H-purin-9-yl)-3,4-dihydroxytetrahydrofuran-2-yl)methyl)thio)propyl)-3-(4-bromobenzyl)guanidine] | inhibition at 100 µM [2]: > 50%; IC50 [1, 8]: 260 ± 70 nM
 | 45 ± 5 nM | N=C(NCCCSC[C@H]1O[C@@H](n2cnc3c(N)ncnc32)[C@H](O)[C@@H]1O)NC1CCC1 [Compound 6b, 1-(3-((((2S,3S,4R,5R)-5-(6-amino-9H-purin-9-yl)-3,4-dihydroxytetrahydrofuran-2-yl)methyl)thio)propyl)-3-cyclobutylguanidine] | inhibition at 100 µM [2]: > 50%; inhibitory activity against PRMT7 [3]: no inhibitory activity; IC50 [1, 8]: 230 ± 20 nM
